Assay results as given in publication PMC3124622 (Biochemical and biophysical research communications, 2011).
Entries after “also recorded” stand apart in the source; their conditions may differ. Read-outs that look alike come from different tables or passages of the source.

What was measured:
[1] = test system: E. coli TGT (C145V/T146V/V217G); experiment: Queuine incorporation by the E. coli TGT triple mutant; type: biochemical; conditions: queuine concentrations up to 50 μM (data not shown)
human TGT [2] = molecular target: T1, human TGT (Homo sapiens, UniProt Q9BXR0); conditions: queuine as substrate, ref Chen et al. (2011) Nuc. Acids Res. 39, 2834; cited from earlier work
E. coli TGT C145V/T146V = E. coli TGT C145V/T146V (Escherichia coli, UniProt P0A847, C145V/T146V); experiment: Pteridine inhibition of guanine incorporation; type: biochemical; conditions: C145V/T146V mutant; vs guanine; 20 μM tRNA, pH 7.3
E. coli TGT Wild-Type = E. coli TGT Wild-Type (Escherichia coli, UniProt P0A847); experiment: Pteridine inhibition of guanine incorporation; type: biochemical
[3] = molecular target: E. coli TGT C145V/T146V/V217G (Escherichia coli, UniProt P0A847, C145V/T146V/V217G); experiment: Pteridine inhibition of guanine incorporation; type: biochemical; conditions: C145V/T146V/V217G (triple) mutant; vs guanine; 20 μM tRNA, pH 7.3
[4] = test system: Wild-type and Mutant E. coli TGTs; experiment: Pteridine inhibition of wild-type and mutant E. coli TGTs; type: biochemical; conditions: the mutant enzymes
[5] = test system: TGT from rabbit reticulocytes; conditions: cited from earlier work
E. coli TGT V217G = E. coli TGT V217G (Escherichia coli, UniProt P0A847, V217G); experiment: Pteridine inhibition of guanine incorporation; type: biochemical; conditions: V217G mutant; vs guanine; 20 μM tRNA, pH 7.3
[6] = molecular target: E. coli TGT C145V/T146V/P147N/V217G (Escherichia coli, UniProt P0A847, C145V/P147N/T146V/V217G); experiment: Pteridine inhibition of guanine incorporation; type: biochemical; conditions: C145V/T146V/P147N/V217G (quadruple) mutant; vs guanine; 20 μM tRNA, pH 7.3
human TGT [7] = molecular target: T1, human TGT; experiment: Biopterin inhibition of human TGT; type: biochemical
[8] = molecular target: TGT from mouse fibroblasts; conditions: cited from earlier work

T1 sequence (Q9BXR0 whole entry): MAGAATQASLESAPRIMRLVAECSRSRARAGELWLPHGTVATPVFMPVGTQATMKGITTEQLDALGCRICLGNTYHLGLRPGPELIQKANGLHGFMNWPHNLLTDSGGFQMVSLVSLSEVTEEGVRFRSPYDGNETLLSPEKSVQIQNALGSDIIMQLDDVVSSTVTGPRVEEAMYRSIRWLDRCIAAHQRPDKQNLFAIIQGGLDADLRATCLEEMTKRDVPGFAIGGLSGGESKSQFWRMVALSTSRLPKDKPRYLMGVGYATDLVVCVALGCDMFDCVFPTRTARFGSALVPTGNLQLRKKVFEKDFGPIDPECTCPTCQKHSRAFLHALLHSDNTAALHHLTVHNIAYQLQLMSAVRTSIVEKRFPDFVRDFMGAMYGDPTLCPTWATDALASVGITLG
T1 sequence (Q9H974 whole entry partner): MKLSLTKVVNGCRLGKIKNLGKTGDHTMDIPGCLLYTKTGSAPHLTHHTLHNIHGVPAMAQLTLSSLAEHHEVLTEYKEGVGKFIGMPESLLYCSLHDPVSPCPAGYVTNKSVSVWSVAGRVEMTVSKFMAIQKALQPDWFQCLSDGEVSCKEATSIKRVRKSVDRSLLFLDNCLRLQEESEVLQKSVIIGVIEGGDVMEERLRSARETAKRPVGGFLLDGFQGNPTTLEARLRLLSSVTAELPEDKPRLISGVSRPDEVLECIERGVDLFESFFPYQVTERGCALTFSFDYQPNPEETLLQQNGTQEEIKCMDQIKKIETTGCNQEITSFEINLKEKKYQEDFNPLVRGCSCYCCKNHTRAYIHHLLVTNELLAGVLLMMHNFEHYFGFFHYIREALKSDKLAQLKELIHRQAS

Compound | incorporation of queuine as a substrate [1] | Km (human TGT [2]) | kcat (human TGT [2]) | Ki (E. coli TGT C145V/T146V) | inhibition (in words) (E. coli TGT Wild-Type; wild-type enzyme) | Ki (E. coli TGT Wild-Type; wild-type enzyme, vs guanine, 20 μM tRNA, pH 7.3) | Ki [3] | inhibition (in words) [4] | inhibition ([5]; 0.48 μM pterin, rabbit reticulocyte TGT) | Ki (E. coli TGT V217G) | Ki [6] | Ki relative to the KM for queuine (human TGT [7]) | mode of inhibition (human TGT [7]; with respect to queuine, Dixon and Cornish-Bowden plots) | inhibition of wild-type TGT (E. coli TGT Wild-Type; biopterin concentrations up to 3 mM) | inhibition ([5]; 20 μM biopterin, rabbit reticulocyte enzyme) | Ki [8]
Nc1nc2[nH]cc(CN[C@H]3C=C[C@H](O)[C@@H]3O)c2c(=O)[nH]1 [Queuine, queuine] | does not recognize; also recorded: no incorporation | 0.26 µM | 8.2 (±0.2) 10^−3•s^−1 | – | – | – | – | – | – | – | – | – | – | – | – | –
Nc1nc2nccnc2c(=O)[nH]1 [Pterin, pterin] | – | – | – | 2.2 µM | inhibited | 0.42 µM | 1.3 µM | inhibited | 44% | 0.9 µM | 37 µM | – | – | – | – | –
biopterin | – | – | – | – | – | – | – | inhibited | – | – | – | ca. 30 fold | competitive inhibitor | no detectable inhibition | 39% | ~1 µM
